Laboratory results published in patent publication EP4707280A1, “1,4-CINEOLE DERIVATIVE AND INTERMEDIATE THEREOF, HERBICIDE CONTAINING SAID DERIVATIVE AS ACTIVE INGREDIENT, METHOD FOR USING HERBICIDE, AND METHOD FOR PREPARING AGROCHEMICAL COMPOSITION” (HOKKO CHEMICAL INDUSTRY CO., LTD., priority 2023, dated 2024).

How the values were obtained:
Type in all cases: in vivo
[1] = system: Digitaria ciliaris; assay: Test Example 3: herbicidal effect test by soil application in upland field; details: Digitaria ciliaris, 120 g per 10 ares, sprayed one day after sowing, 14 days after application, read-out: weed inhibition rate
Summary of the method: (§1)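 Weed inhibition (%) was assessed 14 days after treatment, in duplicate per concentration group. Seeds had been mixed into the upper 1 cm of upland alluvial loam, and the soil surface was sprayed one day later with the diluted emulsifiable concentrate at 120 g active ingredient per 10 ares.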

[2] = system: Echinochloa crus-galli; assay: as above; details: Echinochloa crus-galli, 120 g per 10 ares, sprayed one day after sowing, 14 days after application, read-out: weed inhibition rate
Summary of the method: as §1

[3] = system: Echinochloa crus-galli; assay: Test Example 4: herbicidal effect test by stem and leaf treatment in upland field; details: Echinochloa crus-galli; 120 g per 10 ares; sprayed seven days after sowing, upland soil; 14 days after application; read-out: weed inhibition rate
[4] = system: Echinochloa crus-galli var. formosensis; assay: Test Example 5: herbicidal effect test by soil application in paddy rice (low dose); details: Echinochloa crus-galli, soil, 336 h; 7.5 g per 10 ares; applied immediately after sowing, flooded pots; 14 days after application; read-out: weed inhibition rate
Summary of the method: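 7.5 g a.i./10 a applied by dropper into ~3 cm floodwater immediately post-sowing (seeds 0–1 cm, 30 per species; puddled fertilized paddy soil, glasshouse). Duplicates; day-14 inhibition %.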

[5] = system: Echinochloa crus-galli var. formosensis; assay: Test Example 6: herbicidal effect test by application during growth period of paddy rice (low dose); details: Echinochloa crus-galli; 7.5 g per 10 ares; applied seven days after sowing, flooded pots; 14 days after application; read-out: weed inhibition rate
Summary of the method: (§2)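 Puddled, fertilised paddy soil was sown with 30 seeds per species and flooded to about 3 cm. After 7 days in a glass greenhouse, the diluted emulsifiable concentrate went into the water by dropper at 7.5 g/10 a. Effect scored at 14 days.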

[6] = system: Monochoria vaginalis; assay: as above; details: Pontederia vaginalis; 7.5 g per 10 ares; applied seven days after sowing, flooded pots; 14 days after application; read-out: weed inhibition rate
Summary of the method: as §2

[7] = system: Scirpus juncoides; assay: as above; details: Schoenoplectiella juncoides; 7.5 g per 10 ares; applied seven days after sowing, flooded pots; 14 days after application; read-out: weed inhibition rate
Summary of the method: as §2

[8] = system: Digitaria ciliaris; assay: Test Example 7: herbicidal effect test by soil application in upland field (low dose); details: Digitaria ciliaris, 7.5 g per 10 ares, sprayed one day after sowing, 14 days after application, read-out: weed inhibition rate
Summary of the method: (§3)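 Duplicate pots of alluvial loam, seeds incorporated in the surface 1 cm. Soil surface sprayed 1 d after sowing (EC in water, 100 L/10 a; 7.5 g a.i./10 a). Endpoint: % inhibition, day 14.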

[9] = system: Echinochloa crus-galli; assay: as above; details: Echinochloa crus-galli, 7.5 g per 10 ares, sprayed one day after sowing, 14 days after application, read-out: weed inhibition rate
Summary of the method: as §3

[10] = system: Amaranthus viridis; assay: Test Example 3: herbicidal effect test by soil application in upland field; details: Amaranthus viridis, 120 g per 10 ares, sprayed one day after sowing, 14 days after application, read-out: weed inhibition rate
Summary of the method: as §1

[11] = system: Chenopodium album; assay: as above; details: 120 g per 10 ares, sprayed one day after sowing, 14 days after application, read-out: weed inhibition rate
Summary of the method: as §1

CC(C)[C@]12C[C@@H](OCc3c(F)cccc3Br)[C@](C)(CC1=O)O2 [2-355, (1R,4S,5R)-5-((2-bromo-6-fluorobenzyl)oxy)-1-isopropyl-4-methyl-7-oxabicyclo[2.2.1]heptan-2-one]
≥ 80%: inhibition at 1200 g/ha [1] | inhibition at 1200 g/ha [2] | inhibition at 1200 g/ha [3] | inhibition at 75 g/ha [4] | inhibition at 75 g/ha [5] | inhibition at 75 g/ha [6] | inhibition at 75 g/ha [7] | inhibition at 75 g/ha [8] | inhibition at 75 g/ha [9]

Cc1ccccc1CO[C@@H]1C[C@@]2(C(C)C)C=C[C@]1(C)O2 [3-2, (1R,4S,5R)-4-methyl-5-[(2-methylphenyl)methoxy]-1-isopropyl-7-oxabicyclo[2.2.1]hept-2-ene]
≥ 80%: inhibition at 1200 g/ha [10] | inhibition at 1200 g/ha [1] | inhibition at 1200 g/ha [2] | inhibition at 1200 g/ha [3] | inhibition at 75 g/ha [4] | inhibition at 75 g/ha [5] | inhibition at 75 g/ha [6] | inhibition at 75 g/ha [7] | inhibition at 75 g/ha [8] | inhibition at 75 g/ha [9]

CC(C)[C@]12C=C[C@](C)(O1)[C@H](OCc1ccccc1)C2 [3-1, (1R,4S,5R)-4-methyl-5-phenylmethoxy-1-isopropyl-7-oxabicyclo[2.2.1]hept-2-ene]
≥ 80%: inhibition at 1200 g/ha [1] | inhibition at 1200 g/ha [2] | inhibition at 1200 g/ha [3] | inhibition at 75 g/ha [4] | inhibition at 75 g/ha [5] | inhibition at 75 g/ha [6] | inhibition at 75 g/ha [7] | inhibition at 75 g/ha [8] | inhibition at 75 g/ha [9]

CC(C)[C@]12C[C@@H](OCc3ccsc3)[C@](C)(C[C@@H]1Br)O2 [1-722, (1S,2R,4R,5S)-5-bromo-1-methyl-4-isopropyl-2-(thiophen-3-ylmethoxy)-7-oxabicyclo[2.2.1]heptane]
≥ 80%: inhibition at 1200 g/ha [1] | inhibition at 1200 g/ha [2] | inhibition at 1200 g/ha [3] | inhibition at 75 g/ha [4] | inhibition at 75 g/ha [5] | inhibition at 75 g/ha [6] | inhibition at 75 g/ha [7] | inhibition at 75 g/ha [8] | inhibition at 75 g/ha [9]

C=CCO[C@H]1C[C@]2(C)O[C@@]1(C(C)C)C[C@H]2OCc1ccccc1F [1-1602, (1S,2R,4R,5S)-2-[(2-fluorophenyl)methoxy]-1-methyl-4-isopropyl-5-prop-2-enoxy-7-oxabicyclo[2.2.1]heptane]
≥ 80%: inhibition at 1200 g/ha [1] | inhibition at 1200 g/ha [2] | inhibition at 1200 g/ha [3] | inhibition at 75 g/ha [4] | inhibition at 75 g/ha [5] | inhibition at 75 g/ha [6] | inhibition at 75 g/ha [7] | inhibition at 75 g/ha [8] | inhibition at 75 g/ha [9]

Cc1ccccc1CO[C@@H]1C[C@]2(C(C)C)O[C@@]1(C)C[C@@H]2O [1-24, (1R,2S,4S,5R)-1-isopropyl-4-methyl-5-((2-methylbenzyl)oxy)-7-oxabicyclo[2.2.1]heptan-2-ol]
≥ 80%: inhibition at 1200 g/ha [1] | inhibition at 1200 g/ha [2] | inhibition at 1200 g/ha [3] | inhibition at 75 g/ha [4] | inhibition at 75 g/ha [5] | inhibition at 75 g/ha [6] | inhibition at 75 g/ha [7] | inhibition at 75 g/ha [8] | inhibition at 75 g/ha [9]

Cc1cccc(F)c1CO[C@@H]1C[C@]2(C(C)C)O[C@@]1(C)CC2=O [2-353, (1R,4S,5R)-5-((2-fluoro-6-methylbenzyl)oxy)-1-isopropyl-4-methyl-7-oxabicyclo[2.2.1]heptan-2-one]
≥ 80%: inhibition at 1200 g/ha [1] | inhibition at 1200 g/ha [2] | inhibition at 1200 g/ha [3] | inhibition at 75 g/ha [4] | inhibition at 75 g/ha [5] | inhibition at 75 g/ha [6] | inhibition at 75 g/ha [7] | inhibition at 75 g/ha [8] | inhibition at 75 g/ha [9]

CCO[C@H]1C[C@]2(C)O[C@@]1(C(C)C)C[C@H]2OCc1ccccc1F [1-183, (1S,2R,4R,5S)-5-ethoxy-2-[(2-fluorophenyl)methoxy]-1-methyl-4-isopropyl-7-oxabicyclo[2.2.1]heptane]
≥ 80%: inhibition at 1200 g/ha [1] | inhibition at 1200 g/ha [2] | inhibition at 1200 g/ha [3] | inhibition at 75 g/ha [4] | inhibition at 75 g/ha [5] | inhibition at 75 g/ha [6] | inhibition at 75 g/ha [7] | inhibition at 75 g/ha [8] | inhibition at 75 g/ha [9]

CCC1C[C@]2(C)O[C@@]1(C(C)C)C[C@H]2OCc1ccccc1F (stereo partly drawn) [1-126, (1R,4S,5R)-2-ethyl-5-[(2-fluorobenzyl)oxy]-1-isopropyl-4-methyl-7-oxabicyclo[2.2.1]heptane]
≥ 80%: inhibition at 1200 g/ha [11] | inhibition at 1200 g/ha [1] | inhibition at 1200 g/ha [2] | inhibition at 1200 g/ha [3] | inhibition at 75 g/ha [4] | inhibition at 75 g/ha [5] | inhibition at 75 g/ha [8] | inhibition at 75 g/ha [9]

CO[C@H]1C[C@]2(C)O[C@@]1(C(C)C)C[C@H]2OCc1ccccc1C [1-151, (1 S,2R,4R,5S)-4-isopropyl-5-methoxy-l-methyl-2-((2-methylbenzyl)oxy)-7-oxabicyclo[2.2.1]heptane]
≥ 80%: inhibition at 1200 g/ha [1] | inhibition at 1200 g/ha [2] | inhibition at 1200 g/ha [3] | inhibition at 75 g/ha [4] | inhibition at 75 g/ha [5] | inhibition at 75 g/ha [7] | inhibition at 75 g/ha [8] | inhibition at 75 g/ha [9]

CC(C)[C@]12C[C@@H](OCc3ccc(F)cc3)[C@](C)(C[C@@H]1Br)O2 [1-691, (1S,2R,4R,5S)-5-bromo-2-[(4-fluorophenyl)methoxy]-1-methyl-4-isopropyl-7-oxabicyclo[2.2.1]heptane]
≥ 80%: inhibition at 1200 g/ha [1] | inhibition at 1200 g/ha [2] | inhibition at 1200 g/ha [3] | inhibition at 75 g/ha [4] | inhibition at 75 g/ha [5] | inhibition at 75 g/ha [6] | inhibition at 75 g/ha [7] | inhibition at 75 g/ha [8] | inhibition at 75 g/ha [9]

CC(C)[C@]12C[C@@H](OCc3c(F)cccc3F)[C@](C)(C[C@@H]1Br)O2 [1-21, (1S,2R,4R,5S)-5-bromo-2-[(2,6-difluorophenyl)methoxy]-1-methyl-4-isopropyl-7-oxabicyclo[2.2.1]heptane]
≥ 80%: inhibition at 1200 g/ha [1] | inhibition at 1200 g/ha [2] | inhibition at 1200 g/ha [3] | inhibition at 75 g/ha [4] | inhibition at 75 g/ha [5] | inhibition at 75 g/ha [6] | inhibition at 75 g/ha [7] | inhibition at 75 g/ha [8] | inhibition at 75 g/ha [9]

Cc1ccc(CO[C@@H]2C[C@]3(C(C)C)O[C@@]2(C)C[C@@H]3Br)cc1 [1-681, (1S,2R,4R,5S)-5-bromo-1-methyl-2-[(4-methylphenyl)methoxy]-4-isopropyl-7-oxabicyclo[2.2.1]heptane]
≥ 80%: inhibition at 1200 g/ha [1] | inhibition at 1200 g/ha [2] | inhibition at 1200 g/ha [3] | inhibition at 75 g/ha [4] | inhibition at 75 g/ha [5] | inhibition at 75 g/ha [6] | inhibition at 75 g/ha [7] | inhibition at 75 g/ha [9]

CC(C)C12CC(OCc3ccccc3F)C(C)(CC1Br)O2 (centres unmarked) [1-1355, 5-bromo-2-[(2-fluorophenyl)methoxy]-1-methyl-4-isopropyl-7-oxabicyclo[2.2.1]heptane]
≥ 80%: inhibition at 1200 g/ha [1] | inhibition at 1200 g/ha [2] | inhibition at 1200 g/ha [3] | inhibition at 75 g/ha [4] | inhibition at 75 g/ha [5] | inhibition at 75 g/ha [6] | inhibition at 75 g/ha [7] | inhibition at 75 g/ha [8] | inhibition at 75 g/ha [9]

CCC1C[C@]2(C)O[C@@]1(C(C)C)C[C@H]2OCc1ccccc1C (stereo partly drawn) [1-123, (1R,4S,5R)-2-ethyl-1-isopropyl-4-methyl-5-((2-methylbenzyl)oxy)-7-oxabicyclo[2.2.1]heptane]
≥ 80%: inhibition at 1200 g/ha [11] | inhibition at 1200 g/ha [1] | inhibition at 1200 g/ha [2] | inhibition at 1200 g/ha [3] | inhibition at 75 g/ha [4] | inhibition at 75 g/ha [5] | inhibition at 75 g/ha [8]

CC(C)[C@]12C[C@@H](OCc3ccccc3)[C@](C)(C[C@@H]1Br)O2 [1-15, (1S,2R,4R,5S)-5-bromo-1-methyl-2-phenylmethoxy-4-isopropyl-7-oxabicyclo[2.2.1]heptane]
≥ 80%: inhibition at 1200 g/ha [1] | inhibition at 1200 g/ha [2] | inhibition at 1200 g/ha [3] | inhibition at 75 g/ha [4] | inhibition at 75 g/ha [5] | inhibition at 75 g/ha [6] | inhibition at 75 g/ha [7] | inhibition at 75 g/ha [8] | inhibition at 75 g/ha [9]
